Laboratory results reported in US9663478B2, “Benzotriazine oxides as drugs targeting Mycobacterium tuberculosis” (priority 2011, dated 2017).
≈ marks a conversion by molar mass, not a printed value. Read-outs that look alike come from different tables or passages of the source.

Legend:
NRP Mtb H37Rv cells = test: Low-oxygen recovery assay (LORA) MIC; type: cell-based, Mycobacterium tuberculosis; details: for LORA MIC: Tables P1, P2, non-replicating M. tuberculosis; for MIC: Mycobacterium tuberculosis, H37RV, NRP Mtb, Tables 1-4 and text, read-out: LORA MIC - ITR
Mtb H37Rv [1] = test: TB MIC - ITR (UIC), Institute for Tuberculosis Research; type: cell-based, Mycobacterium tuberculosis; details: for MIC: Mycobacterium tuberculosis, H37RV, Tables 1-4, read-out: TB MIC - ITR
Mtb H37Rv [2] = test: TB MIC - SRI, resazurin-based microplate assay; type: cell-based, Mycobacterium tuberculosis; details: Mycobacterium tuberculosis, H37RV
[3] = Tables P1-P3, read-out: TB MIC - SRI
[4] = Tables 1-4 and text, read-out: TB MIC - SRI

SMILES	MIC (NRP Mtb H37Rv cells)	MIC (Mtb H37Rv [2]; [4])	MIC (Mtb H37Rv [1])	other results
[O-][n+]1nc(N[C@@H]2C[C@H]3CC[C@@H]2C3)[n+]([O-])c2ccc(Cl)cc21 (racemic) [SRI-012305]				LORA MIC (NRP Mtb H37Rv cells): 0.2 µg/mL; TB MIC - UIC (Mtb H37Rv [1]; Tables P1, P2): < 0.125 µg/mL; MIC (Mtb H37Rv [2]; [3]): 0.156 µg/mL (≈ 0.509 µM)
C[C@@H]1[C@H]2C[C@@H](C[C@H]1Nc1n[n+]([O-])c3cc(F)ccc3[n+]1[O-])C2(C)C (racemic) [SRI-012402]				MIC (Mtb H37Rv [2]; [3]): 0.312 µg/mL (≈ 0.939 µM)
[O-][n+]1nc(N[C@@H]2C[C@H]3CC[C@@H]2C3)[n+]([O-])c2cc3c(cc21)CCC3 (racemic) [SRI-012404]				VERO Tox-SRI (Vero cells; African green monkey, 72 h): 50; MIC (Mtb H37Rv [2]; [3]): 1.25 µg/mL (≈ 4 µM)
Cc1cccc2c1[n+]([O-])c(N[C@@H]1C[C@H]3CC[C@@H]1C3)n[n+]2[O-] (racemic) [SRI-012461]				VERO Tox-SRI (Vero cells; African green monkey, 72 h): 2.3; MIC (Mtb H37Rv [2]; [3]): 0.156 µg/mL (≈ 0.545 µM)
CSc1c(C)[n+]([O-])c2ccccc2[n+]1[O-] [Cmpd 3]				Vero Tox CC50 (Vero cells): >16 µg/mL
COCCNC(=O)c1ccc2c(c1)[n+]([O-])c(O)c(C#N)[n+]2[O-] [Cmpd 4]	> 32 µg/mL	> 20 µg/mL		Vero Tox CC50 (Vero cells; African green monkey, 72 h): >16 µg/mL
Cc1c(N2CCCC2)[n+]([O-])c2ccccc2[n+]1[O-] [Cmpd 6]	> 32 µg/mL	> 10 µg/mL		Vero Tox CC50 (Vero cells; African green monkey, 72 h): >16 µg/mL
[O-][n+]1nc(NC2CC2)[n+]([O-])c2ccccc21 [Compound 8b, 3-(cyclopropylamino)benzo[e][1,2,4]triazine 1,4-dioxide]		2.5 µg/mL (≈ 11.5 µM)		Vero Tox CC50 (Vero cells; African green monkey, 72 h): 21 µg/mL
[O-][n+]1nc(NC2CCC2)[n+]([O-])c2ccccc21 [Compound 8d, 3-(cyclobutylamino)benzo[e][1,2,4]triazine 1,4-dioxide]	0.84 µg/mL (≈ 3.62 µM)	1.2 µg/mL (≈ 5.17 µM)	0.94 µg/mL (≈ 4.05 µM)	
[O-][n+]1nc(NC2CCCCC2)[n+]([O-])c2ccccc21 [Compound 8f, 3-(cyclohexylamino)benzo[e][1,2,4]triazine 1,4-dioxide]	0.75 µg/mL (≈ 2.88 µM)	2.5 µg/mL (≈ 9.6 µM)	3.8 µg/mL (≈ 14.6 µM)	
[O-][n+]1nc(NC2CCCCCC2)[n+]([O-])c2ccccc21 [Compound 8g, 3-(cycloheptylamino)benzo[e][1,2,4]triazine 1,4-dioxide]	0.5 µg/mL (≈ 1.82 µM)	2.5 µg/mL (≈ 9.11 µM)	1.6 µg/mL (≈ 5.83 µM)	
CC(C)(C)C1CCC(Nc2n[n+]([O-])c3ccccc3[n+]2[O-])CC1 (stereo not drawn) [Compound 8j, 3-((4-(tert-butyl)cyclohexyl)amino)benzo[e][1,2,4]triazine 1,4-dioxide]	< 0.12 µg/mL	0.62 µg/mL (≈ 1.96 µM)	0.22 µg/mL (≈ 0.695 µM)	
CC(C)CCC(C)Nc1n[n+]([O-])c2ccccc2[n+]1[O-] (stereo not drawn) [Compound 8l, 3-((5-methylhexan-2-yl)amino)benzo[e][1,2,4]triazine 1,4-dioxide]	0.38 µg/mL (≈ 1.38 µM)	1.2 µg/mL (≈ 4.34 µM)	0.52 µg/mL (≈ 1.88 µM)	
CCNc1n[n+]([O-])c2cc(F)ccc2[n+]1[O-] [Compound 15aa, 3-(ethylamino)-7-fluorobenzo[e][1,2,4]triazine 1,4-dioxide]	0.75 µg/mL (≈ 3.35 µM)	0.62 µg/mL (≈ 2.77 µM)	0.35 µg/mL (≈ 1.56 µM)	
[O-][n+]1nc(NC2CCCC2)[n+]([O-])c2ccc(F)cc21 [Compound 15ae, 3-(cyclopentylamino)-7-fluorobenzo[e][1,2,4]triazine 1,4-dioxide]	0.34 µg/mL (≈ 1.29 µM)	0.31 µg/mL (≈ 1.17 µM)	0.33 µg/mL (≈ 1.25 µM)	
[O-][n+]1nc(NC2CCCCC2)[n+]([O-])c2ccc(F)cc21 [Compound 15af, 3-(cyclohexylamino)-7-fluorobenzo[e][1,2,4]triazine 1,4-dioxide]	0.47 µg/mL (≈ 1.69 µM)	0.62 µg/mL (≈ 2.23 µM)	0.68 µg/mL (≈ 2.44 µM)	
[O-][n+]1nc(NC2CCC2)[n+]([O-])c2ccc(Cl)cc21 [Compound 15bd, 7-chloro-3-(cyclobutylamino)benzo[e][1,2,4]triazine 1,4-dioxide]	< 0.12 µg/mL	0.15 µg/mL (≈ 0.562 µM)		
CCNc1n[n+]([O-])c2cc(OC)ccc2[n+]1[O-] [Compound 15da, 3-(ethylamino)-7-methoxybenzo[e][1,2,4]triazine 1,4-dioxide]	16 µg/mL (≈ 67.7 µM)	2.5 µg/mL (≈ 10.6 µM)	15 µg/mL (≈ 63.5 µM)	
Cc1cccc2c1[n+]([O-])c(NC1CCCC1)n[n+]2[O-] [Compound 15ee, 3-(cyclopentylamino)-5-methylbenzo[e][1,2,4]triazine 1,4-dioxide]	0.27 µg/mL (≈ 1.04 µM)	0.31 µg/mL (≈ 1.19 µM)	0.43 µg/mL (≈ 1.65 µM)	
CCNc1n[n+]([O-])c2cc(C)c(OC)cc2[n+]1[O-] [Compound 15ga, 3-(ethylamino)-6-methoxy-7-methylbenzo[e][1,2,4]triazine 1,4-dioxide]		2.5 µg/mL (≈ 9.99 µM)	3.5 µg/mL (≈ 14 µM)	Vero Tox CC50 (Vero cells; African green monkey, 72 h): >100 µg/mL; MIC (Mtb H37Rv [2]; Table 5, read-out: MIC, H37Rv): 1.2 µg/mL (≈ 4.8 µM)
[O-][n+]1nc(N2CCCC2)[n+]([O-])c2ccccc21 [Compound 17q, 3-(pyrrolidin-1-yl)benzo[e][1,2,4]triazine 1,4-dioxide]				Vero Tox CC50 (Vero cells; African green monkey, 72 h): 17 µg/mL; MIC (Mtb H37Rv [2]; Table 5, read-out: MIC, H37Rv): 0.31 µg/mL (≈ 1.33 µM)
CN(Cc1ccccc1)c1n[n+]([O-])c2cc3c(cc2[n+]1[O-])CCC3 [Compound 20t, 3-(benzyl(methyl)amino)-7,8-dihydro-6H-indeno[5,6-e][1,2,4]triazine 1,4-dioxide]	0.41 µg/mL (≈ 1.27 µM)			Vero Tox CC50 (Vero cells; African green monkey, 72 h): 17 µg/mL; MIC (Mtb H37Rv [2]; Table 5, read-out: MIC, H37Rv): 0.31 µg/mL (≈ 0.962 µM)
CC(C)(C)Nc1n[n+]([O-])c2ccccc2[n+]1[O-] [SRI-003356]				MIC (Mtb H37Rv [2]; read-out: TB MIC - SRI, Tables P1-P3): 1.25 µg/mL (≈ 5.34 µM)
CCN(CC)c1n[n+]([O-])c2ccccc2[n+]1[O-] [SRI-009728]				TB MIC - UIC (Mtb H37Rv [1]; Table P3): 12.4 µg/mL; MIC (Mtb H37Rv [2]; [3]): 0.312 µg/mL (≈ 1.33 µM)
CCNc1n[n+]([O-])c2cc(OC)ccc2[n+]1[O-] [SRI-012285]				LORA MIC (NRP Mtb H37Rv cells): 16.2 µg/mL; TB MIC - UIC (Mtb H37Rv [1]; Tables P1, P2): 15.1 µg/mL; VERO Tox-SRI (Vero cells; African green monkey, 72 h): 15.8
Nc1n[n+]([O-])c2cc(Br)ccc2[n+]1[O-] [SRI-012396]				MIC (Mtb H37Rv [2]; [3]): 1.25 µg/mL (≈ 4.86 µM)
Cc1cccc2c1[n+]([O-])c(N)n[n+]2[O-] [SRI-012397]				MIC (Mtb H37Rv [2]; [3]): 0.625 µg/mL (≈ 3.25 µM)
